Measured values published in article PMC3048764 (Brain research, 2010).

Legend:
[1] = system: HT-22 (murine hippocampal) cells; settings: cited from earlier work
[2] = system: HT-22 (murine hippocampal) cells; settings: cited from earlier work; for neuroprotection against toxicity, in words: compared with βE2 or parent compound, ref Perez et al., 2005b; for neuroprotection of non-phenolic estrogens, in words: all of the structure-activity studies
[3] = system: SK-N-SH neuroblastoma cells; settings: up to 200 nM; ref Green et al. (1997b); cited from earlier work
[4] = system: lipid peroxidation in rat brain homogenates; settings: read-out: IC50 of lipid peroxidation seen by other groups; ref Hall et al., 1991; cited from earlier work
[5] = system: HT-22 (murine hippocampal) cells; experiment: Neuroprotection against glutamate toxicity, calcein-AM viability assay; assay type: cell-based; settings: 10 μM concentration, paradigm of Behl's group (1997)
HT-22 cells = experiment: DCF assay of reactive oxygen species, glucose oxidase insult; assay type: cell-based; settings: HT-22 cells insulted with glucose oxidase
ERβ = settings: competitive binding; ref Perez et al. (2005b); cited from earlier work
ERα = settings: competitive binding; ref Perez et al. (2005b); cited from earlier work
uterine weights = experiment: Uterine weight; settings: 1 day of exposure
[6] = system: HT-22 (murine hippocampal) cells; assay type: cell-based; settings: insult not named

Question: For `CC(=O)[C@H]1CC[C@H]2[C@@H]3CC[C@@H]4C[C@H](O)CC[C@]4(C)[C@H]3CC[C@]12C` [pregnanolone], which “protection against glutamate insult at high dose” value ([1]; 10 μM dose, ref Gursoy et al. (2001)) is on record?
Answer: no protection

Question: And the “concentration of optimal protection against glutamate insult” value ([1]; ref Gursoy et al. (2001))?
Answer: 500 nM

Question: With `CC12CCC3c4ccc(O)cc4CCC3C1CCC2O` (stereo not shown) [PS2] as the compound, how does the “neuroprotection against toxicity, in words” value [2] read?
Answer: reduced neuroprotective potencies

Question: With `C[C@]12CC[C@@H]3c4ccc(O)cc4CC[C@H]3[C@@H]1CC[C@@H]2OC(=O)c1ccccc1` [ZYC30] as the compound, how does the “neuroprotection against toxicity, in words” value [2] read?
Answer: decreased the potency of the parent compound

Question: For `C#C[C@]1(O)CC[C@H]2[C@@H]3CCc4cc(OC5CCCC5)ccc4[C@H]3CC[C@@]21C` [quinestrol], which “neuroprotection of non-phenolic estrogens, in words” value [2] is on record?
Answer: did not have protect effects

Question: For `C[C@]12CC[C@@H]3c4ccc(O)cc4CC[C@H]3[C@@H]1CC1(CCCC1)C2=O` [ZYC2], which “neuroprotection against toxicity, in words” value [2] is on record?
Answer: did not enhance neuroprotection

Question: With `CC(=O)[C@H]1CC[C@H]2[C@@H]3CCC4=CC(=O)CC[C@]4(C)[C@H]3CC[C@]12C` [progesterone] as the compound, how does the “protection against serum deprivation” value [3] read?
Answer: did not find progesterone to be protectiive

Question: What about the “neuroprotection against glutamate insult” value ([1]; 10 μM, ref Behl et al. (1997)) of the same compound?
Answer: did not find 10 μM progestrone (P4) to be neuroprotective

Question: Which IC50 [4] does the source give for `C[C@]12CC[C@@H]3c4ccc(O)cc4CC[C@H]3[C@@H]1CC[C@@H]2O` [βE2, 17β-estradiol] here?
Answer: 21 µM

Question: And the “protection against glutamate toxicity at fixed concentration” value [5]?
Answer: protective

Question: And the “decrease of ROS” value (HT-22 cells)?
Answer: not able to significantly decrease ROS

Question: With `C#C[C@]1(O)CC[C@H]2[C@@H]3CCc4cc(OC)ccc4[C@H]3CC[C@@]21C` [mestranol] as the compound, how does the “neuroprotection of non-phenolic estrogens, in words” value [2] read?
Answer: did not have protect effects

Question: For `C[C@]12CC[C@@H]3c4ccc(O)cc4CC[C@H]3[C@@H]1CC[C@H]2O` [αE2], which “ERβ binding, in words” value (ERβ) is on record?
Answer: less affinity

Question: And the “ERα binding, in words” value (ERα)?
Answer: less affinity

Question: Which “increase of uterine weights” value (uterine weights) does the source give for `C[C@]12CC[C@@H]3c4ccc(O)cc4CC[C@H]3[C@@H]1CCC2=O` [Compound E1, estrone] here?
Answer: 71%

Question: What does the source list for `C[C@]12CC=C3c4ccc(O)cc4CC[C@H]3[C@@H]1CC[C@@H]2O` [ZYC1]?
Answer: ERβ binding, in words (ERβ): did not drastically change the affinity; ERα binding, in words (ERα): did not drastically change the affinity

Question: Which “neuroprotection against toxicity, in words” value [2] does the source give for `C[C@]12CC(O)[C@@H]3c4ccc(O)cc4CC[C@H]3[C@@H]1CCC2=O` (stereo partly shown) [Compound E1240] here?
Answer: neuroprotection was completely abolished

Question: For `Cc1c(O)c(C23CC4CC(CC(C4)C2)C3)cc2c1CC[C@@H]1[C@@H]2CC[C@]2(C)C(=O)CC[C@@H]12` [ZYC26, 2-(1-adamantyl)-4-methylestrone], which “fold decrease in EC50 for protection against neurotoxicity, first value” ([6]; first of two values given 'respectively') is on record?
Answer: approximately 9 fold

Question: What about the “fold decrease in EC50 for protection against neurotoxicity, second value” ([6]; second of two values given 'respectively') of the same compound?
Answer: ~4 fold

Question: And the “ERβ binding, in words” value (ERβ)?
Answer: completely abolished the affinity

Question: And the “ERα binding, in words” value (ERα)?
Answer: completely abolished the affinity

Question: For `COc1cc2c(cc1C13CC4CC(CC(C4)C1)C3)[C@H]1CC[C@]3(C)[C@@H](O)CC[C@H]3[C@@H]1CC2` [ZYC23, 3-O-methyl analog of (17beta)-2-(1-adamantyl)estradiol], which “neuroprotection against toxicity, in words” value [2] is on record?
Answer: failed to protect cells against toxicity induced cell death

Question: What does the source list for `CCC(C)c1c(O)ccc2c1CC[C@@H]1[C@@H]2CC[C@]2(C)C(=O)CC[C@@H]12` (stereo partly shown) [ZYC17]?
Answer: ERβ binding, in words (ERβ): completely inhibited estrogen receptor binding; ERα binding, in words (ERα): completely inhibited estrogen receptor binding
